From US4267331A, “Process for the production of 2-substituted pyrido[4,3-b]-indoles” (Pfizer Inc., priority 1980, dated 1981)
Like-named read-outs stand apart in the source and are kept apart here.

System: amphetamine-induced symptoms (cage movement behavior after d-amphetamine sulfate)
Experiment: Antagonism of amphetamine stereotypy in rats
Assay type: in vivo
Conditions: Rattus norvegicus, sc, Part A
Excerpt: The tranquilizing agents of the present invention are characterized by relief of such schizophrenic manifestations in humans as hallucinations, hostility, suspiciousness, emotional or social withdrawal, anxiety, agitation and tension. A standard procedure of detecting and comparing tranquilizing activity of compounds in this series and for which there is an excellent correlation with human efficacy is the antagonism of amphetamine-induced symptoms in rat tests, as taught by A. Weissman, et al., J. Pharmacol. Exp. Ther., 151, 339 (1966) and by Quinton, et al., Nature, 200, 178, (1963).
Antagonism of Amphetamine Stereotypy in Rats Test Procedures and Results
The effects of the compounds of the present invention on prominent amphetamine-induced symptoms were studied in rats by a rating scale modeled after the one reported by Quinton and Halliwell, and Weissman. Groups of five rats were placed in a covered plastic cage measuring approximately 26 cm.×42 cm.×16 cm. After a brief period of acclimation in the cage, the rats in each group were treated subcutaneously (s.c.) with the test compound. They were then treated 1, 5 and 24 hrs. later with d-amphetamine sulfate, 5 mg./kg. intraperitoneally (i.p.). […] On the basis of dose-response data after amphetamine it was possible to determine the effective dose of the compound necessary to antagonize or block the characteristic amphetamine behavior of cage movement for fifty percent of the rats tested (ED50). The time of rating chosen coincides with the peak action of amphetamine which is 60-80 min. after treatment with this agent.
Employing the above-described procedure, the following 4a,9b-trans compounds were tested for their ability to block the behavior effects of amphetamine, the results being reported as the ED50 in mg./kg. at the indicated times: [drawing 33]

COc1ccc(C(O)CCCN2CCC3C(C2)c2cc(F)ccc2N3c2ccc(F)cc2)cc1 (stereo not drawn)
ED50 (1 h, s.c. per method b367, 1 Hr., read-out: ED50 (mg./kg.) 1 Hr., antagonism of amphetamine stereotypy): 0.1 to 0.32 mg/kg
ED50 (5 h, s.c. per method b367, 5 Hr., read-out: ED50 (mg./kg.) 5 Hr., antagonism of amphetamine stereotypy): < 0.1 mg/kg
ED50 (24 h, s.c. per method b367, 24 Hrs., read-out: ED50 (mg./kg.) 24 Hrs., antagonism of amphetamine stereotypy): < 0.32 mg/kg
